Where a name gives a salt, the structure may show the parent alone. Read-outs that look alike come from different tables or passages of the source.
How the values were obtained:
[1] = Confirmatory laboratory extraction of a synthetic inhibitor/sugar mixture; assay type: physicochemical; conditions: 5 mL synthetic solution + 5 mL solvent, 20° C., HPLC
Excerpt: In order to define a standardized method of comparing solvents, a new parameter called extraction yield was created. Extraction yield is a ratio of the concentration of a species in the extract to the concentration of that species in the feed. […].
Another parameter, the extraction score, was defined in order to rank overall inhibitor removal performance. Each extraction yield of inhibitors and sugars was multiplied by a weighting factor determined by the importance of removing or retaining the particular compound in the feed. The resulting numbers were then summed to calculate the extraction score.
The confirmatory extraction of a synthetic inhibitor/sugar mixture was next carried out using inhibitors and sugars to mimic the conditions in acid-pretreated cellulosic fermentation feed. The synthetic solutions contained 1 g/L each of formic acid, lactic acid, acetic acid, furfural, HMF and vanillin as well as 20 g/L of glucose and 60 g/L of xylose. Five mL of this synthetic solution and 5 mL of solvent were added to a test tube and the test tubes were shaken in a Lab Line Instruments (Mumbai, India) “MULTI-WRIST SHAKER” at a setting of 8 for 10 min at 20° C. The mixture was allowed to settle overnight to phase separate completely. Inhibitor concentrations in each phase were analyzed by an Agilent Technologies (Santa Clara, Calif.) 1100 HPLC system consisting of a quaternary gradient pump, autosampler, heated column compartment, and diode array absorbance detector. Gradient elution was done on a YMC Company Ltd. (Kyoto, Japan) “YMC Carotenoid S-5” (C30) column with 0.05% phosphoric acid and a solvent ramp of 0% acetonitrile/100% water to 90% acetonitrile/10% water and back over 32.5 minutes. Based on the measured concentration of each inhibitor and sugar, extraction yields and scores were calculated and shown in Table 1 and reported as “laboratory extraction yield” and “laboratory extraction score”; (see footnotes 2 and 3).

[2] = system: E. Coli, FBR-5 strain; assay: Fermentation of extracted C5 fraction, sugar and ethanol by HPLC; assay type: cell-based, Escherichia coli
[3] = cited from earlier work
[4] = CE2 liquid/liquid solvent extraction (not membrane), 0 hrs
[5] = CE2 liquid/liquid solvent extraction (not membrane), 24 hrs
[6] = EX4 multilayer cross-flow MSE, 0 hrs
[7] = EX4 multilayer cross-flow MSE, 24 hrs
[8] = EX4 multilayer cross-flow MSE, 48 hrs
[9] = IUPAC-NIST Solubility Data Series / Yaws' Handbook

Question: With `CCCCCCCCCCO` [1-decanol] as the molecule, how does the “laboratory extraction yield, Acetic acid” value [1] read?
Answer: The value was 0.281^3.

Question: And the “laboratory extraction yield, Formic acid” value [1]?
Answer: The value was 0.180^3.

Question: And the “laboratory extraction yield, Furfural” value [1]?
Answer: The value was 0.666^3.

Question: And the “laboratory extraction yield, HMF” value [1]?
Answer: Its value is 0.280^3.

Question: What about the “laboratory extraction yield, Lactic acid” value [1] of the same molecule?
Answer: The value was 0.120^3.

Question: What about the “laboratory extraction yield, Vanillin” value [1] of the same molecule?
Answer: The value was 0.911^3.

Question: What about the Ethanol [2, 4] of the same molecule?
Answer: The Ethanol was 0 g/L.

Question: What about the Sugar [2, 4] of the same molecule?
Answer: The Sugar was 48 g/L.

Question: And the Ethanol [2, 5]?
Answer: Its Ethanol is 23 g/L.

Question: And the Sugar [2, 5]?
Answer: Its Sugar is 1 g/L.

Question: What about the Ethanol ([2]; EX3 single layer MSE, 0 hrs) of the same molecule?
Answer: Its Ethanol is 0 g/L.

Question: And the Sugar ([2]; EX3 single layer MSE, 0 hrs)?
Answer: Its Sugar is 48 g/L.

Question: What about the Ethanol ([2]; EX3 single layer MSE, 24 hrs) of the same molecule?
Answer: Its Ethanol is 20 g/L.

Question: And the Sugar ([2]; EX3 single layer MSE, 24 hrs)?
Answer: The Sugar was 3 g/L.

Question: What about the Ethanol [2, 6] of the same molecule?
Answer: Its Ethanol is 0 g/L.

Question: What about the Sugar [2, 6] of the same molecule?
Answer: The Sugar was 50 g/L.

Question: What about the Ethanol [2, 7] of the same molecule?
Answer: The Ethanol was 12 g/L.

Question: And the Sugar [2, 7]?
Answer: The Sugar was 30 g/L.

Question: What about the Ethanol [2, 8] of the same molecule?
Answer: The Ethanol was 18 g/L.

Question: And the Sugar [2, 8]?
Answer: The Sugar was 12 g/L.

Question: What about the “Water Solubility” value ([3]; literature values) of the same molecule?
Answer: Its value is 0.10 g/100 mL.

Question: Which “laboratory extraction yield, Acetic acid” value [1] does the source give for `CCCCCCCCCCCCO` [1-dodecanol] here?
Answer: The value was 0.000^3.

Question: And the “laboratory extraction yield, Formic acid” value [1]?
Answer: Its value is 0.020^3.

Question: And the “laboratory extraction yield, Furfural” value [1]?
Answer: The value was 0.593^3.

Question: What about the “laboratory extraction yield, HMF” value [1] of the same molecule?
Answer: Its value is 0.200^3.

Question: What about the “laboratory extraction yield, Lactic acid” value [1] of the same molecule?
Answer: Its value is 0.050^3.

Question: And the “laboratory extraction yield, Vanillin” value [1]?
Answer: Its value is 0.903^3.

Question: For `CCCCCCCCO` [1-octanol], which “laboratory extraction yield, Acetic acid” value [1] is on record?
Answer: Its value is 0.361^3.

Question: And the “laboratory extraction yield, Formic acid” value [1]?
Answer: The value was 0.239^3.

Question: And the “laboratory extraction yield, Furfural” value [1]?
Answer: The value was 0.728^3.

Question: And the “laboratory extraction yield, HMF” value [1]?
Answer: Its value is 0.360^3.

Question: And the “laboratory extraction yield, Lactic acid” value [1]?
Answer: The value was 0.180^3.

Question: What about the “laboratory extraction yield, Vanillin” value [1] of the same molecule?
Answer: Its value is 0.931^3.

Question: And the “Water Solubility” value ([3]; literature values)?
Answer: The value was 0.11 g/100 mL.

Question: With `CC(C)CC(O)CC(C)C` [2,6-dimethyl-4-heptanol] as the molecule, how does the “laboratory extraction yield, Acetic acid” value [1] read?
Answer: The value was 0.301^3.

Question: And the “laboratory extraction yield, Formic acid” value [1]?
Answer: The value was 0.180^3.

Question: And the “laboratory extraction yield, Furfural” value [1]?
Answer: Its value is 0.593^3.

Question: And the “laboratory extraction yield, HMF” value [1]?
Answer: The value was 0.220^3.

Question: What about the “laboratory extraction yield, Lactic acid” value [1] of the same molecule?
Answer: Its value is 0.070^3.

Question: And the “laboratory extraction yield, Vanillin” value [1]?
Answer: The value was 0.851^3.

Question: What about the “Water Solubility” value ([3]; literature values) of the same molecule?
Answer: Its value is 0.045 g/100 mL.

Question: What does the source list for `CCCCC(CC)CO` (stereo not drawn) [2-ethyl-1-hexanol]?
Answer: laboratory extraction yield, Acetic acid [1]: 0.352^3; laboratory extraction yield, Formic acid [1]: 0.213^3; laboratory extraction yield, Furfural [1]: 0.669^3; laboratory extraction yield, HMF [1]: 0.337^3; laboratory extraction yield, Lactic acid [1]: 0.112^3; laboratory extraction yield, Vanillin [1]: 0.918^3

Question: For `CCCCC(C)O` (stereo not drawn) [2-hexanol], which “Water Solubility” value ([3]; literature values) is on record?
Answer: The value was 0.35 g/100 mL.

Question: Which “Water Solubility” value ([3]; literature values) does the source give for `CCCCCCCC(C)=O` [2-nonanone] here?
Answer: Its value is 0.050 g/100 mL.

Question: What does the source list for `CCCCCCC(C)O` (stereo not drawn) [2-octanol]?
Answer: laboratory extraction yield, Acetic acid [1]: 0.397^3; laboratory extraction yield, Formic acid [1]: 0.280^3; laboratory extraction yield, Furfural [1]: 0.687^3; laboratory extraction yield, HMF [1]: 0.394^3; laboratory extraction yield, Lactic acid [1]: 0.155^3; laboratory extraction yield, Vanillin [1]: 0.937^3; Water Solubility ([3]; literature values): 0.11 g/100 mL

Question: Which results are given for `CCCCCCC(=O)CC` [3-nonanone]?
Answer: laboratory extraction yield, Acetic acid [1]: 0.321^3; laboratory extraction yield, Formic acid [1]: 0.130^3; laboratory extraction yield, Furfural [1]: 0.895^3; laboratory extraction yield, HMF [1]: 0.310^3; laboratory extraction yield, Lactic acid [1]: 0.030^3; laboratory extraction yield, Vanillin [1]: 0.931^3; Water Solubility ([3]; literature values): 0.010 g/100 mL

Question: Which “laboratory extraction yield, Acetic acid” value [1] does the source give for `CC(=O)c1ccccc1` [Acetophenone] here?
Answer: The value was 0.351^3.

Question: And the “laboratory extraction yield, Formic acid” value [1]?
Answer: The value was 0.234^3.

Question: And the “laboratory extraction yield, Furfural” value [1]?
Answer: Its value is 0.917^3.

Question: What about the “laboratory extraction yield, HMF” value [1] of the same molecule?
Answer: Its value is 0.647^3.

Question: What about the “laboratory extraction yield, Lactic acid” value [1] of the same molecule?
Answer: The value was 0.137^3.

Question: And the “laboratory extraction yield, Vanillin” value [1]?
Answer: Its value is 0.700^3.

Question: And the “Water Solubility” value ([3]; literature values)?
Answer: Its value is 0.10 g/100 mL.

Question: For `CCCCNCCCC` [Dibutylamine], which “Water Solubility” value ([3]; literature values) is on record?
Answer: Its value is 0.35 g/100 mL.

Question: Which “Water Solubility” value ([3]; literature values) does the source give for `CCCCCCCC/C=C\CCCCCCCCO` [Oleyl alcohol] here?
Answer: The value was 0.018 g/100 mL.

Question: For `CCCCCCCCN(CCCCCCCC)CCCCCCCC` [Trioctylamine], which “Water Solubility” value ([3]; literature values) is on record?
Answer: The value was 0.10 g/100 mL.

Question: What does the source list for `O=Cc1ccccc1` [benzaldehyde]?
Answer: laboratory extraction yield, Acetic acid [1]: 0.301^3; laboratory extraction yield, Formic acid [1]: 0.200^3; laboratory extraction yield, Furfural [1]: 1.114^3; laboratory extraction yield, HMF [1]: 0.841^3; laboratory extraction yield, Lactic acid [1]: 0.070^3; laboratory extraction yield, Vanillin [1]: 1.392^3; Water Solubility ([3]; literature values): 0.01 g/100 mL

Question: For `C1CCCCC1` [cyclohexane], which “Water Solubility” value ([3]; literature values) is on record?
Answer: The value was 0.0017 g/100 mL.

Question: For `C1CCC2CCCCC2C1` (stereo not drawn) [decahydronapthalene], which “Water Solubility” value ([3]; literature values) is on record?
Answer: Its value is 0.002 g/100 mL.

Question: Which results are given for `CCCCOC(=O)/C=C\C(=O)OCCCC` [dibutyl maleate]?
Answer: Ethanol [2, 4]: 0 g/L; Sugar [2, 4]: 45 g/L; Ethanol [2, 5]: 20 g/L; Sugar [2, 5]: 1 g/L; Ethanol ([2]; EX3 single layer MSE, 0 hrs): 0 g/L; Sugar ([2]; EX3 single layer MSE, 0 hrs): 51 g/L; Ethanol ([2]; EX3 single layer MSE, 24 hrs): 19 g/L; Sugar ([2]; EX3 single layer MSE, 24 hrs): 2 g/L

Question: With `CCOCC` [diethyl ether, reference compound] as the molecule, how does the Water Solubility [3, 9] read?
Answer: Its Water Solubility is 6.9 grams per 100 mL.

Question: With `CCOC(C)=O` [ethyl acetate, reference compound] as the molecule, how does the Water Solubility [3, 9] read?
Answer: Its Water Solubility is 8.3 grams per 100 mL.

Question: For `CCCC(=O)OCC` [ethyl butyrate], which “laboratory extraction yield, Acetic acid” value [1] is on record?
Answer: The value was 0.221^3.

Question: And the “laboratory extraction yield, Formic acid” value [1]?
Answer: Its value is 0.160^3.

Question: What about the “laboratory extraction yield, Furfural” value [1] of the same molecule?
Answer: The value was 0.937^3.

Question: What about the “laboratory extraction yield, HMF” value [1] of the same molecule?
Answer: The value was 0.360^3.

Question: What about the “laboratory extraction yield, Lactic acid” value [1] of the same molecule?
Answer: The value was 0.050^3.

Question: What about the “laboratory extraction yield, Vanillin” value [1] of the same molecule?
Answer: The value was 1.001^3.

Question: And the “Water Solubility” value ([3]; literature values)?
Answer: Its value is 0.50 g/100 mL.

Question: Which “Water Solubility” value ([3]; literature values) does the source give for `CC(C)OC(C)C` [isopropyl ether] here?
Answer: The value was 0.20 g/100 mL.

Question: For `CCCCCCCCCC` [n-decane], which “Water Solubility” value ([3]; literature values) is on record?
Answer: Its value is 0.10 g/100 mL.

Question: With `CCCCCCCCCCCC` [n-dodecane] as the molecule, how does the “Water Solubility” value ([3]; literature values) read?
Answer: The value was 0.10 g/100 mL.

Question: Which “Water Solubility” value ([3]; literature values) does the source give for `CCCCCC` [n-hexane] here?
Answer: Its value is 0.10 g/100 mL.

Question: With `CCCCCCCCCCCCCC` [n-tetradecane] as the molecule, how does the “Water Solubility” value ([3]; literature values) read?
Answer: Its value is 0.10 g/100 mL.

Question: Which “Water Solubility” value ([3]; literature values) does the source give for `CCCN(CCC)CCC` [tripropylamine] here?
Answer: Its value is 0.10 g/100 mL.

Reference: patent US20130084614A1, “METHODS OF REMOVING INHIBITORS FROM CELLULOSIC BIOMASS AND PRODUCING ALCOHOLS” (3M INNOVATIVE PROPERTIES COMPANY, priority 2010, published 2013)
